Assay results from patent US11000033B2, “Ketone or oxime compound, and herbicide” (NISSAN CHEMICAL CORPORATION, priority 2014, dated 2021).

Key:
Format in all cases: in vivo
beet = experiment: Test Example 5: effect on crop by foliage application, plastic box (symbol f); details: 320 g/ha, 3 weeks after application
Outline: (§1)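 Crop and weed seeds sown in spots in sterilized diluvial soil in plastic boxes and covered with about 1.5 cm soil. Plants raised in a greenhouse at 25° C. to 30° C. for foliar application.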

[1] = tested on: directly sowed rice plant; experiment: Test Example 3: effect on crop by foliage application, Wagner pot (symbol b); details: application herbicide amount 320 g/ha; for b (directly sowed rice plant) effect on crop grade: Table 24
Outline: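 Wagner pot (1/10000 are), alluvial soil, submerged 0.1–0.5 cm; sown E. crus-galli var. crus-galli, L. chinensis, C. difformis, rice; greenhouse 25–30 °C.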

Scirpus juncoides = experiment: Test Example 1: herbicidal activity, application before weed generation in submerged conditions (symbol B); details: application herbicide amount 320 g/ha
Outline: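 Weed control was rated three weeks after treatment on a 0–5 scale, from 5% or lower up to 90% or more. Pre-emergence water-surface application of diluted emulsion at a predetermined rate was made on the day of sowing, in flooded (4 cm water) pots containing rice seedlings, kept at 25–30 °C under glass.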

Setaria viridis [2] = experiment: Test Example 4: herbicidal effect by soil treatment (symbol G)
Outline: (§2)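 Seeds were sown in sterilized diluvial soil, covered with about 1.5 cm of soil, and the soil surface was sprayed with a water-diluted emulsion of the compound at a predetermined rate. Plants grew in a greenhouse at 25° C. to 30° C.; effects were scored visually 3 weeks after application.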

Setaria viridis [3] = experiment: Test Example 5: herbicidal effect by foliage application, plastic box (symbol G); details: 320 g/ha, 3 weeks after application
Outline: (§3)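 Post-emergence spray; diluvial soil (sterilized), ~1.5 cm seed cover; greenhouse 25–30° C; 14-day-old plants; water-diluted emulsion at predetermined dose; visual score at 3 wk post-treatment.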

Monochoria vaginalis = experiment: Test Example 2: herbicidal activity, application during weed generation in submerged conditions (symbol C); details: Table 23; application herbicide amount 320 g/ha; grade 0-5 by criteria of Test Example 1
Outline: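 Seeds sown in flooded alluvial soil (4 cm water) were grown in a 25-30° C greenhouse. At the one- to two-leaf stage, diluted emulsion of compound was applied to the water surface at a predetermined rate. Effect was scored 3 weeks later.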

soybean [4] = experiment: Test Example 4: effect on crop by soil treatment (symbol d); details: for d: soybean, effect grade on crop: 320 g/ha
Outline: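 Soil-treatment setup: crop and weed seeds were spot-sown into sterilized diluvial soil, then buried beneath approximately 1.5 cm of it, and the boxes were housed in a 25–30° C. greenhouse.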

soybean [5] = experiment: Test Example 5: effect on crop by foliage application, plastic box (symbol d); details: 320 g/ha, 3 weeks after application
Outline: as §1

Veronica persica = experiment: Test Example 4: herbicidal effect by soil treatment (symbol R)
Outline: as §2

Stellaria media = experiment: Test Example 4: herbicidal effect by soil treatment (symbol P)
Outline: as §2

rapeseed = experiment: Test Example 5: effect on crop by foliage application, plastic box (symbol g); details: 320 g/ha, 3 weeks after application
Outline: as §1

[6] = tested on: Echinochloa crus-galli var. crus-galli; experiment: Test Example 4: herbicidal effect by soil treatment (symbol H)
Outline: as §2

Digitaria ciliaris = experiment: Test Example 4: herbicidal effect by soil treatment (symbol F)
Outline: as §2

[7] = tested on: Echinochloa crus-galli var. crus-galli; experiment: Test Example 5: herbicidal effect by foliage application, plastic box (symbol H); details: 320 g/ha, 3 weeks after application
Outline: as §3

[8] = application herbicide amount 320 g/ha

Structure (SMILES)	f: beet, effect on crop (criteria 0-5) (beet)	effect on crop b (directly sowed rice plant), grade 0-5 [1]	Herbicidal effect grade, B: Scirpus juncoides (Scirpus juncoides)	G: Setaria viridis, herbicidal effect grade (Setaria viridis [2]; 320 g/ha)	G: Setaria viridis, herbicidal effect (criteria 0-5) (Setaria viridis [3])	Herbicidal effect grade, C: Monochoria vaginalis (Monochoria vaginalis)	d: soybean, effect grade on crop (soybean [4])	d: soybean, effect on crop (criteria 0-5) (soybean [5])	R: Veronica persica, herbicidal effect grade (Veronica persica; 320 g/ha)	P: Stellaria media, herbicidal effect grade (Stellaria media; 320 g/ha)	g: rapeseed, effect on crop (criteria 0-5) (rapeseed)	H: Echinochloa crus-galli var. crus-galli, herbicidal effect grade ([6]; 320 g/ha)	F: Digitaria ciliaris, herbicidal effect grade (Digitaria ciliaris; 320 g/ha)	H: Echinochloa crus-galli var. crus-galli, herbicidal effect (criteria 0-5) [7]	f: beet, effect on crop grade (beet)	b (directly sowed rice plant) effect on crop grade [1]	B (Scirpus juncoides) herbicidal effect grade (Scirpus juncoides)	G: Setaria viridis, herbicidal effect grade (Setaria viridis [3])	d: soybean, effect on crop grade (soybean [5])	g: rapeseed, effect on crop grade (rapeseed)	further results
CC(CC1CC(O)=C(c2c(C)cc(C)cc2C)C1=O)=NOCC1CC1(F)F (stereo not drawn) [1-109]	0 (Herbicidal ratio of 5% or lower (almost no effect))	5 (Herbicidal ratio of 90% or more (almost completely withered))	5 (Herbicidal ratio of 90% or more (almost completely withered))	5 (Herbicidal ratio of 90% or more (almost completely withered))	5 (Herbicidal ratio of 90% or more (almost completely withered))	2 (Herbicidal ratio of 20% or higher and lower than 40%)	0 (Herbicidal ratio of 5% or lower (almost no effect))	0 (Herbicidal ratio of 5% or lower (almost no effect))	2 (Herbicidal ratio of 20% or higher and lower than 40%)	0 (Herbicidal ratio of 5% or lower (almost no effect))	4 (Herbicidal ratio of 70% or higher and lower than 90%)	5 (Herbicidal ratio of 90% or more (almost completely withered))	5 (Herbicidal ratio of 90% or more (almost completely withered))	5 (Herbicidal ratio of 90% or more (almost completely withered))							
CC#Cc1cc(C)c(C2=C(OC(=O)COc3ccccc3)CC(CC(C)=NOCC(F)(F)F)C2=O)c(C)c1 (stereo not drawn) [9-013]						3 (Herbicidal ratio of 40% or higher and lower than 70%)									4 (Herbicidal ratio of 70% or higher and lower than 90%)	5 (Herbicidal ratio of 90% or more (almost completely withered))	5 (Herbicidal ratio of 90% or more (almost completely withered))	5 (Herbicidal ratio of 90% or more (almost completely withered))	0 (Herbicidal ratio of 5% or lower (almost no effect))	4 (Herbicidal ratio of 70% or higher and lower than 90%)	Herbicidal effect grade, G: Setaria viridis (Setaria viridis [2]; [8]): 5 (Herbicidal ratio of 90% or more (almost completely withered)); Effect on crop grade, d: soybean (soybean [4]; [8]): 0 (Herbicidal ratio of 5% or lower (almost no effect)); Herbicidal effect grade, R: Veronica persica (Veronica persica; [8]): 4 (Herbicidal ratio of 70% or higher and lower than 90%); Herbicidal effect grade, P: Stellaria media (Stellaria media; [8]): 0 (Herbicidal ratio of 5% or lower (almost no effect)); Herbicidal effect grade, H: Echinochloa crus-galli var. crus-galli [6, 8]: 5 (Herbicidal ratio of 90% or more (almost completely withered)); Herbicidal effect grade, F: Digitaria ciliaris (Digitaria ciliaris; [8]): 5 (Herbicidal ratio of 90% or more (almost completely withered)); H: Echinochloa crus-galli var. crus-galli, herbicidal effect grade [7]: 5 (Herbicidal ratio of 90% or more (almost completely withered))
CON=C(C)CC1CC(OC(=O)N(C)C)=C(c2c(C)cc(C)cc2C)C1=O (stereo not drawn) [1-108]	1 (Herbicidal ratio of 5% or higher and lower than 20%)	5 (Herbicidal ratio of 90% or more (almost completely withered))	4 (Herbicidal ratio of 70% or higher and lower than 90%)	5 (Herbicidal ratio of 90% or more (almost completely withered))	5 (Herbicidal ratio of 90% or more (almost completely withered))	1 (Herbicidal ratio of 5% or higher and lower than 20%)	0 (Herbicidal ratio of 5% or lower (almost no effect))	3 (Herbicidal ratio of 40% or higher and lower than 70%)	0 (Herbicidal ratio of 5% or lower (almost no effect))	0 (Herbicidal ratio of 5% or lower (almost no effect))	4 (Herbicidal ratio of 70% or higher and lower than 90%)	5 (Herbicidal ratio of 90% or more (almost completely withered))	5 (Herbicidal ratio of 90% or more (almost completely withered))	5 (Herbicidal ratio of 90% or more (almost completely withered))							
COC(=O)C(C(=O)C1CC1)C1CC(O)=C(c2c(C)cc(Br)cc2C)C1=O (mixture of isomers) [10-002]						0 (Herbicidal ratio of 5% or lower (almost no effect))									0 (Herbicidal ratio of 5% or lower (almost no effect))	5 (Herbicidal ratio of 90% or more (almost completely withered))	0 (Herbicidal ratio of 5% or lower (almost no effect))	5 (Herbicidal ratio of 90% or more (almost completely withered))	0 (Herbicidal ratio of 5% or lower (almost no effect))	0 (Herbicidal ratio of 5% or lower (almost no effect))	Herbicidal effect grade, G: Setaria viridis (Setaria viridis [2]; [8]): 4 (Herbicidal ratio of 70% or higher and lower than 90%); Effect on crop grade, d: soybean (soybean [4]; [8]): 0 (Herbicidal ratio of 5% or lower (almost no effect)); Herbicidal effect grade, R: Veronica persica (Veronica persica; [8]): 0 (Herbicidal ratio of 5% or lower (almost no effect)); Herbicidal effect grade, P: Stellaria media (Stellaria media; [8]): 0 (Herbicidal ratio of 5% or lower (almost no effect)); Herbicidal effect grade, H: Echinochloa crus-galli var. crus-galli [6, 8]: 4 (Herbicidal ratio of 70% or higher and lower than 90%); Herbicidal effect grade, F: Digitaria ciliaris (Digitaria ciliaris; [8]): 4 (Herbicidal ratio of 70% or higher and lower than 90%); H: Echinochloa crus-galli var. crus-galli, herbicidal effect grade [7]: 5 (Herbicidal ratio of 90% or more (almost completely withered))
CON=C(CC1CC(OC(=O)C(C)(C)C)=C(c2c(C)cc(C)cc2OC)C1=O)C1CC1 (mixture of isomers) [13-006]						4 (Herbicidal ratio of 70% or higher and lower than 90%)									3 (Herbicidal ratio of 40% or higher and lower than 70%)	5 (Herbicidal ratio of 90% or more (almost completely withered))	5 (Herbicidal ratio of 90% or more (almost completely withered))	5 (Herbicidal ratio of 90% or more (almost completely withered))	2 (Herbicidal ratio of 20% or higher and lower than 40%)	4 (Herbicidal ratio of 70% or higher and lower than 90%)	G: Setaria viridis, herbicidal effect grade (Setaria viridis [2]; [8]): 5 (Herbicidal ratio of 90% or more (almost completely withered)); d: soybean, effect on crop grade (soybean [4]; [8]): 0 (Herbicidal ratio of 5% or lower (almost no effect)); R: Veronica persica, herbicidal effect grade (Veronica persica; [8]): 0 (Herbicidal ratio of 5% or lower (almost no effect)); P: Stellaria media, herbicidal effect grade (Stellaria media; [8]): 0 (Herbicidal ratio of 5% or lower (almost no effect)); H: Echinochloa crus-galli var. crus-galli, herbicidal effect grade [6, 8]: 5 (Herbicidal ratio of 90% or more (almost completely withered)); F: Digitaria ciliaris, herbicidal effect grade (Digitaria ciliaris; [8]): 5 (Herbicidal ratio of 90% or more (almost completely withered)); H: Echinochloa crus-galli var. crus-galli, herbicidal effect grade [7]: 5 (Herbicidal ratio of 90% or more (almost completely withered))
CON=C(C)CC1CC(OC(=O)c2cc(C)on2)=C(c2c(C)cc(C)cc2C)C1=O (stereo not drawn) [1-100]	0 (Herbicidal ratio of 5% or lower (almost no effect))	5 (Herbicidal ratio of 90% or more (almost completely withered))	5 (Herbicidal ratio of 90% or more (almost completely withered))	5 (Herbicidal ratio of 90% or more (almost completely withered))	5 (Herbicidal ratio of 90% or more (almost completely withered))	3 (Herbicidal ratio of 40% or higher and lower than 70%)	2 (Herbicidal ratio of 20% or higher and lower than 40%)	3 (Herbicidal ratio of 40% or higher and lower than 70%)	1 (Herbicidal ratio of 5% or higher and lower than 20%)	0 (Herbicidal ratio of 5% or lower (almost no effect))	5 (Herbicidal ratio of 90% or more (almost completely withered))	5 (Herbicidal ratio of 90% or more (almost completely withered))	5 (Herbicidal ratio of 90% or more (almost completely withered))	5 (Herbicidal ratio of 90% or more (almost completely withered))							
